# According to publication PMC5641083, “Blockage of FOXP3 transcription factor dimerization and FOXP3/AML1 interaction inhibits T regulatory cell activity: sequence optimization of a peptide inhibitor” (Oncotarget, 2017):
# Read-outs that look alike come from different tables or passages of the source. Where a SMILES comes first, the peptide text is derived from it.
# Key:
# murine Treg cells = format: cell-based, BALB/c mice
# Description: Results shown in Figures 1–3 correspond to cell-free assays where peptides can interact directly with its corresponding protein partner. However, FOXP3 binding peptides need to enter into the cell in order to inhibit FOXP3 functions. Once we identified some mutants with higher capacity to bind FOXP3, we studied their capacity to inhibit the suppressor activity of natural Tregs in vitro. Thus, we activated effector T cells with anti-CD3 monoclonal antibody in the presence of Tregs, and analyzed the capacity of each peptide to restore T cell proliferation inhibited by Treg cells. […] Indeed, when results from the point-variant screening are represented as a heat map, it is clear that introduction of an alanine at positions 2, 5 and 11 improved activity of the original P60, whereas alanine mutations at positions 1, 7, 8, 9, 10 and 12 are detrimental (Figure 4C).
# Isolation of murine CD4^+CD25^+, and CD4^+CD25^− T-cells was performed from murine spleen cells by using murine regulatory T-cell isolation kit (Miltenyi Biotec, Bergisch Gladbach, Germany) according to manufacturer's instructions. The purity of the resulting T-cell populations was confirmed to be > 95% by flow cytometry.
# Inhibition of murine T regulatory cell function was measured in an in vitro assay of T-cell stimulation. CD25+ depleted spleen cells (10^5 cells/well) from BALB/c mice were stimulated in vitro with 2, 5 μg/ml of anti-mouse CD3 antibody (Pharmingen) in the presence/absence of purified Treg cells (10^4 cells/well). T-cell proliferation was measured 3 days later as previously described.
# [1] = target: T1, FOXP3/FOXP3 homodimerization (GST-FOXP3 and FOXP3-His) (Homo sapiens, UniProt Q9BZS1); test: AlphaScreen FOXP3 homodimerization assay; format: biochemical; settings: GST-FOXP3 40 nM, FOXP3-His 300 nM
# T1 construct: made in house; host or cells: E. coli
# T1 sequence (Q9BZS1 1-421): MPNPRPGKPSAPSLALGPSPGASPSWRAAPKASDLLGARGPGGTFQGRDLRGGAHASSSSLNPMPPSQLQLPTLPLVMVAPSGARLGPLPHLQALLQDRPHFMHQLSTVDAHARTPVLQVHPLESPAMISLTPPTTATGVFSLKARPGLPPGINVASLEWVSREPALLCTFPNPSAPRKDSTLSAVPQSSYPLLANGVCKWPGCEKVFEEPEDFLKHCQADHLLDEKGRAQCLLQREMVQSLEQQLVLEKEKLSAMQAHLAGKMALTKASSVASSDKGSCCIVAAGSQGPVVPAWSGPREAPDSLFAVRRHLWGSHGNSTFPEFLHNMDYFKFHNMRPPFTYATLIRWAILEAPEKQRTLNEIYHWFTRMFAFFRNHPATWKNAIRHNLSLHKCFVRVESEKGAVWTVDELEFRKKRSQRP
# Description: (§1) AML1 is required for IL-2 and IFN-γ gene expression in conventional CD4+ T cells and its interaction with FOXP3 is needed for the immunosuppressive activity of Tregs. On the other hand, it has been described that the leucine zipper region is necessary and sufficient to mediate FOXP3 homo-dimerization, which is required for its function as a transcriptional regulator [13, 15, 20]. Thus, since P60 binds to this FOXP3 intermediate region, we analyzed if it could act as a decoy molecule to inhibit FOXP3 homodimerization or the FOXP3-AML1 heterodimerization. The capacity of FOXP3 to homodimerize was measured using the […] assay platform AlphaScreen™ (Perkin Elmer). Previous protein-cross titration experiment using different concentrations of FOXP3-6His (from 1000 to 0 nM) and GST-FOXP3 (from 300 to 0 nM) allowed us to define the optimal protein concentrations to analyze FOXP3 homodimerization (Figure 2A). […] We also tested if GST tagged FOXP3 was able to interact with AML1 protein tagged with 6 His at the N-terminus. As shown in the cross titration experiments in Figure 2C, a specific FOXP3-AML1 heterodimerization was visualized as an increase in the AlphaScreen signal.
# (§2) FOXP3/AML1 heterodimerization, as well as FOXP3/FOXP3 homodimerization were analyzed by Alphascreen technology according to the manufacturer's instructions (Perkin Elmer, Benelux) as previously described.
# FOXP3/AML1 interaction = target: T2, FOXP3/AML1 interaction (Homo sapiens, UniProt Q9BZS1); test: AlphaScreen FOXP3/AML1 heterodimerization assay; format: biochemical
# T2 sequence (Q9BZS1 1-431): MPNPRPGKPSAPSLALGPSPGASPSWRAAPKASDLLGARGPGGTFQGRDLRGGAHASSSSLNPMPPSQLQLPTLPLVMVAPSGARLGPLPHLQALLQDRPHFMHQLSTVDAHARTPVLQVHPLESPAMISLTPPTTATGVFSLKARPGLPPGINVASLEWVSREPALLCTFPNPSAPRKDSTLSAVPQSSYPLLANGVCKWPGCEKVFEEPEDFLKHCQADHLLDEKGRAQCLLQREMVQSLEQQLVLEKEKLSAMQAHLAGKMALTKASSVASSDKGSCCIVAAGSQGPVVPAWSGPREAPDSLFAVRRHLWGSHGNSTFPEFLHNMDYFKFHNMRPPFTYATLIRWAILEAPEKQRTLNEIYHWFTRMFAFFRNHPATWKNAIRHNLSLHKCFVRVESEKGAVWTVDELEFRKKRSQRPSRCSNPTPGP
# Description: as §1, §2
# [2] = Metabolic stability in mouse liver microsomes; format: in vitro ADME; settings: 1 μM, estimated by first order kinetics
# Procedure: (§3) Metabolic stability was measured by Wuxi AppTech (Shanghai, China). Briefly, peptides (1 μM, 5% MeOH in potassium phosphate buffer) were incubated with human (catalogue no. 452161 from BD Gentest) and mouse (catalogue no. M1000, Xenotech) liver microsomes at 37°C for 10 min. Liver microsomes were at a final assay concentration of 0.7 mg protein/mL. The reaction was started by the addition of 90 μL of NADP cofactor solution and stopped by the addition of 300 μL of stop solution (acetonitrile at 4°C, including 100 ng/mL tolbutamide as an internal standard) after 20 min of incubation. The samples were shaken for 5 min and then centrifuged for 20 min at 1500 g. A 100 μL aliquot of the supernatant was transferred to eight new 96-well plates with 300 μL of HPLC water and centrifuged at 1500 g for LC-MS/MS analysis (Shimadzu LC 10-AD−API 4000). An injection volume of 10 μL was added to a Phenomenex Synergi C18 column eluting with formic acid in water or acetonitrile at a flow rate of 800 μL/min. The percent loss of parent compound was calculated from the peak area ratio of the analyte/internal standard. Compounds and positive controls were tested in duplicate.
# [3] = Metabolic stability in human liver microsomes; format: in vitro ADME; settings: 1 μM, estimated by first order kinetics
# Procedure: as §3
# Hepa-129 cells = test: Hepa-129 subcutaneous tumor rejection model; format: in vivo, C3H/HeN mice; settings: Hepa-129 s.c.
# Procedure: Seven days after Hepa-129 cells injection, when the tumor reached 5 mm in diameter, mice were treated with CM-1215 (from days 7 to 16, 50μg/day/mouse) or anti-PD1 antibodies (50 μg/mice) at days 7 and 14. A group of mice treated with anti-PD1 received also 10 consecutive i.p. administrations of CM-1215 from days 7 to 16 (50 μg/day/mouse).
# For tumor rejection experiments, Hepa-129 cells (10^6 cells/mouse), were injected subcutaneously (sc) in C3H/HeN mice (n = 6). Ten days later, when the tumor reached 5 mm in diameter, mice were randomly divided into different experimental groups. A group of mice were treated i.p. with anti-PD1 antibodies (50 μg/mouse). Antibody administration was repeated one week after this first administration. A group of mice treated with anti-PD1 also received the cyclic peptide CM-1215 from days 10 to 20 (50 μg/mice/day). Tumor size, presented as the average of two perpendicular diameters (millimetres), was measured at regular intervals. Mice were sacrificed when the mean tumor diameter was greater than 20 mm. […] Tumor size was monitored twice a week with a calliper and it was expressed according to the formula V = (length × width^2)/2. […]
# [4] = test system: FOXP3-6His (native FOXP3, 1-421); test: Surface plasmon resonance, peptide binding to FOXP3-coated chip; settings: for FOXP3 binding by SPR (in words): peptides at 2.5 μM, N-terminal acetylation and C-terminal amidation
# Procedure: Using truncated versions of FOXP3, we attempted to identify the FOXP3 domain interacting with peptide P60, described previously by or group as a FOXP3 inhibitory peptide. Thus, besides native FOXP3 we prepared the deletion mutants FOXP3 (1-331) (lacking the C-terminus of FOXP3), FOXP3 (177-421) (lacking the N-terminus) and FOXP3 (1-177) (encompassing only the N-terminus of FOXP3) (Figure 1A). They were coated on a chip for SPR experiments.
# Screening of peptide binding to FOXP3 was performed by surface plasmon resonance (SPR) using ProteOn XPR36 (Bio-Rad, Hercules CA, USA) optical biosensor. Recombinant protein FOXP3-6His and the indicated truncated versions of FOXP3 were produced and purified from E-coli and immobilized covalently onto a GLM sensor chip (Bio-Rad) using sulfo-NHS and EDC (Bio-Rad) coupling reagents. After protein immobilization, chip surface was treated with ethanolamine to deactivate the excess of reactive esters. Individual peptide solutions (1–20 μM) were injected by triplicate in running buffer (Phosphate buffered saline, 0.005% (v/v) Tween 20, pH 7.4) at a flow of 30 μl/min. The interspot signal (obtained in the chip surface not immobilized with protein) was used as reference.
compound,measurement,setting,value
H-RAFQSFRKMWPFFAM-OH [P60-D2A],IC50,"murine Treg cells; in vitro cell based bioassay, read-out: IC50 to inhibit Treg activity",27200 nM
same,Inhibition of FOXP3 homodimerization (in words),[1],inhibited
same,Inhibition of FOXP3-AML1 heterodimerization (in words),FOXP3/AML1 interaction,inhibited
CSCC[C@@H]1NC(=O)[C@H](C)NC(=O)[C@H](Cc2ccccc2)NC(=O)[C@H](Cc2ccccc2)NC(=O)[C@@H]2CCCN2C(=O)[C@H](Cc2c[nH]c3ccccc23)NC(=O)[C@H](CCSC)NC(=O)[C@H](CCCCN)NC(=O)[C@H](CCCNC(=N)N)NC(=O)[C@H](Cc2ccccc2)NC(=O)[C@H](C)NC(=O)[C@H](CCC(N)=O)NC(=O)[C@H](Cc2ccccc2)NC(=O)[C@H](C)NC(=O)[C@H](CCCNC(=N)N)NC1=O [CM-1215] (cyclo(RAFQAFRKMWPFFAM)),IC50,murine Treg cells,770 nM
same,half-life,[2],~8 min
same,T1/2,[3],5.30 min
same,half-life,[3],~8 min
same,"Antitumor effect / survival, single agent (in words)","Hepa-129 cells; CM-1215 50μg/day/mouse i.p. days 7 to 16, anti-PD1 50 μg/mice days 7 and 14","some beneficial effect on the percentage of survival, this response did not reach statistical significance"
same,Antitumor activity in combination with anti-PD1 (in words),"Hepa-129 cells; anti-PD1 50 μg days 7 and 14 plus CM-1215 50 μg/day/mouse i.p. days 7 to 16, p < 0.001",exhibited antitumor activity
same,FOXP3 binding capacity by SPR (in words),"[4]; FOXP3 coated on chip, mutants compared with original P60",improved very significantly its capacity to bind to FOXP3
Ac-RAFQAFRKMWPFFAM-NH2 [P60-D2A-S5A],IC50,murine Treg cells,1890 nM
same,half-life,[2],< 2.5 min
same,half-life,[3],< 2.5 min
same,FOXP3 binding by SPR (in words),[4],improved FOXP3 binding
same,Inhibition of FOXP3-AML1 heterodimerization (in words),FOXP3/AML1 interaction,significantly improved the capacity of the original P60 peptide to inhibit this interaction
Ac-RAFQAFRKMWAFFAM-NH2 [P60-D2A-S5A-P11A],IC50,murine Treg cells,2950 nM
same,FOXP3 binding by SPR (in words),[4],improved very significantly the FOXP3 binding capacity
same,Inhibition of FOXP3-AML1 heterodimerization (in words),FOXP3/AML1 interaction,significantly improved the capacity of the original P60 peptide to inhibit this interaction
